Results taken from PubChem BioAssay AID334 (DTP/NCI, 2004).
Values joined by “and” are separate entries in the source; they are usually repeats but may differ in a detail not shown here. Equal entries are not always repeated. Toxic doses and inconclusive results are not listed.

Tested on: CD2F1 mice, intracerebral P388 leukemia, median survival T/C%
Assay: NCI In Vivo Anticancer Drug Screen. Data for tumor model P388 Leukemia (intracerebral) in CD2F1 (CDF1) mice
Conditions: endpoint: median survival time, higher = longer survival
Procedure: The antitumor activity of compounds was measured in mice bearing transplantable tumors. Survival or tumor size were measured and the results are expressed as the measurement made in the treated group (T) divided by the measurement made in the vehicle treated control group (C). The tumor model used in this assay is P388 Leukemia (intracerebral) in CD2F1 (CDF1) mice

[1] = dose: 6.25 mg/kg/injection, schedule: Q01DX009 (ip), vehicle: saline with Tween-80
[2] = dose: 12.5 mg/kg/injection, schedule: Q01DX009 (ip), vehicle: saline with Tween-80
[3] = dose: 25.0 mg/kg/injection, schedule: Q01DX009 (ip), vehicle: saline with Tween-80
[4] = dose: 50.0 mg/kg/injection, schedule: Q01DX009 (ip), vehicle: saline with Tween-80

## CN=S(=O)(OCCCCCOS(=O)(=NC)c1ccccc1)c1ccccc1 (stereo not drawn)
[1]
  T/C: 107 % of control
[2]
  T/C: 100 % of control
[3]
  T/C: 101 % of control
[4]
  T/C: 102 % of control
dose: 100.0 mg/kg/injection, schedule: Q01DX009 (ip), vehicle: saline with Tween-80
  T/C: 102 % of control

## CC1(C)N=C(N)N=C(N)N1c1ccc(CCC(=O)Nc2ccc(S(=O)(=O)F)cc2)c(Cl)c1
dose: 6.25 mg/kg/injection, schedule: Q01DX009 (ip), vehicle: saline
  T/C: 100 % of control
dose: 12.5 mg/kg/injection, schedule: Q01DX009 (ip), vehicle: saline
  T/C: 111 % of control
dose: 25.0 mg/kg/injection, schedule: Q01DX009 (ip), vehicle: saline
  T/C: 105 % of control
dose: 50.0 mg/kg/injection, schedule: Q01DX009 (ip), vehicle: saline
  T/C: 105 % of control

## CCCCCCOC(=O)C(N)Cc1ccc(N(CCCl)CCCl)cc1 (stereo not drawn)
dose: 1.6 mg/kg/injection, schedule: Q03HX008 (ip), vehicle: saline
  T/C: 105 % of control
dose: 3.2 mg/kg/injection, schedule: Q03HX008 (ip), vehicle: saline
  T/C: 115 % of control
dose: 6.4 mg/kg/injection, schedule: Q03HX008 (ip), vehicle: saline
  T/C: 110 % of control

## C[C@]1(O)CC[C@H]2[C@@H]3CCC4=CC(=O)CC[C@]4(C)[C@@]3(F)[C@@H](O)C[C@@]21C
dose: 8.0 mg/kg/injection, schedule: Q01DX009 (ip), vehicle: saline with Tween-80
  T/C: 100 % of control and 105 % of control
dose: 16.0 mg/kg/injection, schedule: Q01DX009 (ip), vehicle: saline with Tween-80
  T/C: 91 % of control and 109 % of control
dose: 32.0 mg/kg/injection, schedule: Q01DX009 (ip), vehicle: saline with Tween-80
  T/C: 96 % of control and 106 % of control
dose: 64.0 mg/kg/injection, schedule: Q01DX009 (ip), vehicle: saline with Tween-80
  T/C: 95 % of control and 104 % of control
dose: 128.0 mg/kg/injection, schedule: Q01DX009 (ip), vehicle: saline with Tween-80
  T/C: 91 % of control and 104 % of control
dose: 256.0 mg/kg/injection, schedule: Q01DX009 (ip), vehicle: saline with Tween-80
  T/C: 96 % of control and 106 % of control
dose: 512.0 mg/kg/injection, schedule: Q01DX009 (ip), vehicle: saline with Tween-80
  T/C: 89 % of control and 104 % of control

## O=C1NC2(CCCCC2)C(=O)N1CCN(CCCl)CCCl
dose: 1.25 mg/kg/injection, schedule: Q01DX005 (iv), vehicle: clinical formulation
  T/C: 112 % of control
dose: 1.25 mg/kg/injection, schedule: Q01DX009 (ip), vehicle: clinical formulation
  T/C: 103 % of control
dose: 1.25 mg/kg/injection, schedule: Q01DX009 (ip), vehicle: saline with Tween-80
  T/C: 98 % of control
dose: 1.5 mg/kg/injection, schedule: Q01DX009 (ip), vehicle: saline
  T/C: 107 % of control
dose: 2.5 mg/kg/injection, schedule: Q01DX005 (iv), vehicle: clinical formulation
  T/C: 106 % of control
dose: 2.5 mg/kg/injection, schedule: Q01DX009 (ip), vehicle: clinical formulation
  T/C: 101 % of control
dose: 2.5 mg/kg/injection, schedule: Q01DX009 (ip), vehicle: saline with Tween-80
  T/C: 110 % of control
dose: 5.0 mg/kg/injection, schedule: Q01DX005 (iv), vehicle: clinical formulation
  T/C: 160 % of control
dose: 5.0 mg/kg/injection, schedule: Q01DX009 (ip), vehicle: clinical formulation
  T/C: 103 % of control
dose: 5.0 mg/kg/injection, schedule: Q01DX009 (ip), vehicle: saline with Tween-80
  T/C: 112 % of control
dose: 6.0 mg/kg/injection, schedule: Q01DX009 (ip), vehicle: saline
  T/C: 117 % of control
dose: 10.0 mg/kg/injection, schedule: Q01DX009 (ip), vehicle: saline with Tween-80
  T/C: 124 % of control
dose: 20.0 mg/kg/injection, schedule: Q01DX009 (ip), vehicle: saline with Tween-80
  T/C: 103 % of control

## CC(C)(C)N1CC1CNC(=O)C(=O)NCC1CN1C(C)(C)C (stereo not drawn)
dose: 3.0 mg/kg/injection, schedule: Q01DX009 (ip), vehicle: saline with Tween-80
  T/C: 101 % of control
dose: 3.12 mg/kg/injection, schedule: Q01DX009 (ip), vehicle: saline with Tween-80
  T/C: 104 % of control and 107 % of control
dose: 6.0 mg/kg/injection, schedule: Q01DX009 (ip), vehicle: saline with Tween-80
  T/C: 121 % of control
[1]
  T/C: 117 % of control and 111 % of control
[2]
  T/C: 177 % of control
[3]
  T/C: 105 % of control

## COc1ccc(CC2C(=O)NC(C)C(=O)N(C)C3C(=O)N(C)C(Cc4ccc(O)c(c4)Oc4ccc(cc4)C3O)C(=O)NC(C)C(=O)NC(C)C(=O)N2C)cc1 (stereo not drawn)
dose: 0.12 mg/kg/injection, schedule: Q01DX009 (ip), vehicle: Klucel (hydroxypropylcellulose) (HPC)
  T/C: 91 % of control and 98 % of control
dose: 0.13 mg/kg/injection, schedule: Q01DX009 (ip), vehicle: saline
  T/C: 104 % of control and 108 % of control
dose: 0.25 mg/kg/injection, schedule: Q01DX009 (ip), vehicle: Klucel (hydroxypropylcellulose) (HPC)
  T/C: 100 % of control and 103 % of control and 109 % of control
dose: 0.25 mg/kg/injection, schedule: Q01DX009 (ip), vehicle: saline
  T/C: 101 % of control and 109 % of control
dose: 0.5 mg/kg/injection, schedule: Q01DX009 (ip), vehicle: Klucel (hydroxypropylcellulose) (HPC)
  T/C: 100 % of control and 101 % of control and 106 % of control
dose: 0.5 mg/kg/injection, schedule: Q01DX009 (ip), vehicle: saline
  T/C: 104 % of control and 111 % of control
dose: 1.0 mg/kg/injection, schedule: Q01DX009 (ip), vehicle: Klucel (hydroxypropylcellulose) (HPC)
  T/C: 95 % of control and 101 % of control and 106 % of control
dose: 1.0 mg/kg/injection, schedule: Q01DX009 (ip), vehicle: saline
  T/C: 97 % of control and 103 % of control
dose: 2.0 mg/kg/injection, schedule: Q01DX009 (ip), vehicle: Klucel (hydroxypropylcellulose) (HPC)
  T/C: 89 % of control
dose: 2.0 mg/kg/injection, schedule: Q01DX009 (ip), vehicle: saline
  T/C: 109 % of control and 111 % of control

## CCCCCCCCCCCCCCCCCC(=O)N[C@@H](Cc1ccc(N(CCCl)CCCl)cc1)C(=O)NCCCCCC
dose: 2.12 mg/kg/injection, schedule: Q03HX008 (ip), vehicle: saline
  T/C: 105 % of control
dose: 4.24 mg/kg/injection, schedule: Q03HX008 (ip), vehicle: saline
  T/C: 105 % of control
dose: 8.48 mg/kg/injection, schedule: Q03HX008 (ip), vehicle: saline
  T/C: 105 % of control
dose: 16.95 mg/kg/injection, schedule: Q03HX008 (ip), vehicle: saline
  T/C: 94 % of control
dose: 33.9 mg/kg/injection, schedule: Q03HX008 (ip), vehicle: saline
  T/C: 105 % of control
dose: 67.8 mg/kg/injection, schedule: Q03HX008 (ip), vehicle: saline
  T/C: 110 % of control

## O=C1c2c(O)ccc(O)c2C(=O)c2c(NCCNCCO)ccc(NCCNCCO)c21
dose: 0.5 mg/kg/injection, schedule: Q01DX009 (ip), vehicle: saline with Tween-80
  T/C: 100 % of control
dose: 1.0 mg/kg/injection, schedule: Q01DX009 (ip), vehicle: saline with Tween-80
  T/C: 105 % of control
dose: 2.0 mg/kg/injection, schedule: Q01DX009 (ip), vehicle: saline with Tween-80
  T/C: 106 % of control

## CCN(CC)CCCC(C)Nc1c2ccc(Cl)cc2nc2ccc(OC)cc12 (stereo not drawn)
dose: 8.0 mg/kg/injection, schedule: Q01DX009 (ip), vehicle: suspension in saline
  T/C: 96 % of control
dose: 16.0 mg/kg/injection, schedule: Q01DX009 (ip), vehicle: suspension in saline
  T/C: 96 % of control
dose: 32.0 mg/kg/injection, schedule: Q01DX009 (ip), vehicle: suspension in saline
  T/C: 100 % of control
dose: 64.0 mg/kg/injection, schedule: Q01DX009 (ip), vehicle: suspension in saline
  T/C: 88 % of control

## Cc1cc(NC(=O)NCc2ccc(N3C(N)=NC(N)=NC3(C)C)cc2)ccc1S(=O)(=O)F
[2]
  T/C: 105 % of control
[3]
  T/C: 105 % of control
dose: 25.0 mg/kg/injection, schedule: Q04DX003 (ip), vehicle: saline with Tween-80
  T/C: 111 % of control
dose: 25.0 mg/kg/injection, schedule: Q04DX003 (ip), vehicle: saline
  T/C: 105 % of control
[4]
  T/C: 97 % of control
dose: 50.0 mg/kg/injection, schedule: Q04DX003 (ip), vehicle: saline with Tween-80
  T/C: 101 % of control
dose: 50.0 mg/kg/injection, schedule: Q04DX003 (ip), vehicle: saline
  T/C: 100 % of control
dose: 100.0 mg/kg/injection, schedule: Q04DX003 (ip), vehicle: saline with Tween-80
  T/C: 90 % of control
dose: 100.0 mg/kg/injection, schedule: Q04DX003 (ip), vehicle: saline
  T/C: 111 % of control
dose: 200.0 mg/kg/injection, schedule: Q04DX003 (ip), vehicle: saline with Tween-80
  T/C: 116 % of control
dose: 200.0 mg/kg/injection, schedule: Q04DX003 (ip), vehicle: saline
  T/C: 111 % of control
dose: 400.0 mg/kg/injection, schedule: Q04DX003 (ip), vehicle: saline
  T/C: 105 % of control

## CCCCCCCCCCCCCCCCCC(=O)NC(CC(=O)OCCCCCC)c1ccc(N(CCCl)CCCl)cc1 (stereo not drawn)
dose: 2.15 mg/kg/injection, schedule: Q03HX008 (ip), vehicle: saline
  T/C: 105 % of control
dose: 4.3 mg/kg/injection, schedule: Q03HX008 (ip), vehicle: saline
  T/C: 105 % of control
dose: 8.6 mg/kg/injection, schedule: Q03HX008 (ip), vehicle: saline
  T/C: 105 % of control
dose: 69.0 mg/kg/injection, schedule: Q03HX008 (ip), vehicle: saline
  T/C: 152 % of control
dose: 275.0 mg/kg/injection, schedule: Q03HX008 (ip), vehicle: saline
  T/C: 121 % of control
